{"source": "patent US9006194B2", "about": "“Compositions and methods for diminishing viral infection and inflammation associated with viral infection” (Drexel University, priority 2008, dated 2015)", "system": "CD4+ and CD8+ T cells", "assay": "Apoptosis assay of primary human CD4+ and CD8+ T lymphocytes exposed to Type 1 interferon (CD95/Fas-induced, Annexin V)", "conditions": "5 ng/mL for 72 hours, resting or anti-CD3 activated T cells, n=5 healthy donors", "protocol": "T cells were activated with anti-CD3 antibody. n=5 healthy donors for each group.\nPrimary human PBMC were isolated were isolated by density centrifugation using Ficoll from heparinized venous blood of HIV-1-seronegative adult donors and seeded into 24-well plates at a concentration of 1×10^6 cells/mL/well. Freshly isolated PBMC were treated with 5 ng/mL recombinant IFN-α (PBL Interferon Source; Piscataway, N.J.) in the presence or absence of monoclonal anti-CD3 antibody (OKT3). Anti-CD3 was immobilized by coating plates with 0.1 μg/mL in PBS for 2 hours. Following a 3 day incubation period, PBMC were harvested and transferred to 24-well plates that were uncoated or coated with 5 μg/mL monoclonal anti-CD95 antibody (IgM, CH11; Immunotech, Brea, Calif.) for 14 hour at 37° C. in 5% CO2. Cells were subsequently harvested, counted and stained for flow cytometry analysis. The following combinations of mAb were used to identify CD4+ and CD8+ T cell subpopulations: anti-CD3-PE/anti-CD4-APC/anti-CD8-PerCP; and for the apoptosis studies: Annexin V-Cy5.5 (eBioscience, San Diego, Calif.). One million cells were stained as previously described (Mueller Y M et al., 2001, Immunity. 15:871-882) with the combination of antibodies in HBSS (Cellgro, Herndon, Va.), 3% FBS, 0.02% NaN3 for 15 min on ice, washed twice with HBSS, 3% FBS, 0.02% NaN3 and fixed with 1% paraformaldehyde. […]"}
{"substance": "IFN-α", "values": [{"measurement": "CD95/Fas-induced apoptosis of T cells (in words)", "value": "increase"}]}
